This note sets out measurements from ChEMBL document CHEMBL5291721, “A preclinical secondary pharmacology resource illuminates target-adverse drug reaction associations of marketed drugs” (Nat Commun, 2023).

A word on the AC50: it is the concentration at which the activity in the assay is half-maximal. Read a low AC50 as greater potency.

Targets include D(1A) dopamine receptor (Homo sapiens, UniProt P21728); D(3) dopamine receptor (Homo sapiens, UniProt P35462); Histamine H3 receptor (Homo sapiens, UniProt Q9Y5N1); Mu-type opioid receptor (Homo sapiens, UniProt P35372).
The next test concerns the target Acetylcholinesterase (Homo sapiens, UniProt P22303). Format: functional.
For test [1], the target named is T1, Alpha-2A adrenergic receptor (Homo sapiens, UniProt P08913).
T1 sequence (P08913 whole entry): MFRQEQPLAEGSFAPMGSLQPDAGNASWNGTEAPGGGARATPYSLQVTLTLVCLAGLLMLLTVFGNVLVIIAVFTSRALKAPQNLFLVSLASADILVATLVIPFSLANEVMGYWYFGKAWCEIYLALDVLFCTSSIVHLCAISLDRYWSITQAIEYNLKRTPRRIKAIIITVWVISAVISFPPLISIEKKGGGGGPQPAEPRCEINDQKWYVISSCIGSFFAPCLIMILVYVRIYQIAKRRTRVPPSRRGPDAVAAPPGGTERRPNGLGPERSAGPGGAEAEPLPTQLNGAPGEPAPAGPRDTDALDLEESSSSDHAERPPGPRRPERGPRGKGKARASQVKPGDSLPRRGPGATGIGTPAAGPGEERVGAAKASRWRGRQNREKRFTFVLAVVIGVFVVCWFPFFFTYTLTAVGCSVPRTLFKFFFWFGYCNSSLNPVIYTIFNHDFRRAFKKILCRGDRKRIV

In a further test the target is Prothrombin (Homo sapiens, UniProt P00734). Format: functional.
The target in test [2] is T2, 5-hydroxytryptamine receptor 1A (Homo sapiens, UniProt P08908).
T2 sequence (P08908 whole entry): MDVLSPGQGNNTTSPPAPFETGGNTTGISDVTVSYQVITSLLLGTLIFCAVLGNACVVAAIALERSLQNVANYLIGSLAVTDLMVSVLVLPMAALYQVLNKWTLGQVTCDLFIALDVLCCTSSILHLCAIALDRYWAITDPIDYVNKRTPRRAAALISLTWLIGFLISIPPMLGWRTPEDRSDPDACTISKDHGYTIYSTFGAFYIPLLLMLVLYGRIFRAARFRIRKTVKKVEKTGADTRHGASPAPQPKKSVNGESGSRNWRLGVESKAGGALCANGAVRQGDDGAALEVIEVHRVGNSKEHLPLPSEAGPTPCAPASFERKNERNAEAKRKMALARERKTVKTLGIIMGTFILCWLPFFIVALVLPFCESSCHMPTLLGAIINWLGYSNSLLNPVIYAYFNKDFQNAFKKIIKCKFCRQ

For test [3], the target named is 5-hydroxytryptamine receptor 2B (Homo sapiens, UniProt P41595). Format: functional, cell-based.
The target of test [4] is Voltage-gated inwardly rectifying potassium channel KCNH2 (Homo sapiens, UniProt Q12809). Format: functional.
In test [5] the target is 3',5'-cyclic-AMP phosphodiesterase 4A (Homo sapiens, UniProt P27815). It is filed as functional.
The target in another test is T3, Progesterone receptor (Homo sapiens, UniProt P06401).
T3 sequence (P06401 whole entry): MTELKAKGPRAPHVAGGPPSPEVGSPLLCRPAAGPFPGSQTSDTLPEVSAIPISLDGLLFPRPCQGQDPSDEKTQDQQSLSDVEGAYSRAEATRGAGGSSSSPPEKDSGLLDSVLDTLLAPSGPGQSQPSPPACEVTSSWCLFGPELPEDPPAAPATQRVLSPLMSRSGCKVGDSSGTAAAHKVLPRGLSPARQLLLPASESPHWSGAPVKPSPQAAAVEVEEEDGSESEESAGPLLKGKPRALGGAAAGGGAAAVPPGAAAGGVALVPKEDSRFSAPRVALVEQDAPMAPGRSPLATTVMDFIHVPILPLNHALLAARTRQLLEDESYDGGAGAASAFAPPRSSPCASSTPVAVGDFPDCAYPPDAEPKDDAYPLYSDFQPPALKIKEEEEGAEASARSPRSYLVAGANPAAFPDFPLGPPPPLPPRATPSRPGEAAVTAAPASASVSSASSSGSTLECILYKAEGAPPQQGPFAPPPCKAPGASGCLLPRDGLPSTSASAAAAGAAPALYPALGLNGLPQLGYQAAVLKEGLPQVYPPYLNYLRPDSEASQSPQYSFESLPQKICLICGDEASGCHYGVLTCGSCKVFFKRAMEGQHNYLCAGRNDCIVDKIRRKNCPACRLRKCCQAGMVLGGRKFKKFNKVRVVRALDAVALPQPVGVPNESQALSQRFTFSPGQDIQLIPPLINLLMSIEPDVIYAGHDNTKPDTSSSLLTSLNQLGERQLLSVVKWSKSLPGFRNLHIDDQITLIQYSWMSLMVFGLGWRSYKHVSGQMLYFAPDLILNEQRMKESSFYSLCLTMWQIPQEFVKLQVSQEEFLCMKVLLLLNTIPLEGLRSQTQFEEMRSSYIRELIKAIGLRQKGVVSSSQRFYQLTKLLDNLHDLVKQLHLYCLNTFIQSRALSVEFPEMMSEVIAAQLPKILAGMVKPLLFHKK

Test [6] addresses Prostaglandin G/H synthase 1 (Homo sapiens, UniProt P23219). It is filed as functional.
Test [7] addresses Sodium-dependent noradrenaline transporter (Homo sapiens, UniProt P23975).
Test [8] has as its target Sodium-dependent dopamine transporter (Homo sapiens, UniProt Q01959).
The target in test [9] is T4, Thromboxane A2 receptor (Homo sapiens, UniProt P21731).
T4 sequence (P21731 whole entry): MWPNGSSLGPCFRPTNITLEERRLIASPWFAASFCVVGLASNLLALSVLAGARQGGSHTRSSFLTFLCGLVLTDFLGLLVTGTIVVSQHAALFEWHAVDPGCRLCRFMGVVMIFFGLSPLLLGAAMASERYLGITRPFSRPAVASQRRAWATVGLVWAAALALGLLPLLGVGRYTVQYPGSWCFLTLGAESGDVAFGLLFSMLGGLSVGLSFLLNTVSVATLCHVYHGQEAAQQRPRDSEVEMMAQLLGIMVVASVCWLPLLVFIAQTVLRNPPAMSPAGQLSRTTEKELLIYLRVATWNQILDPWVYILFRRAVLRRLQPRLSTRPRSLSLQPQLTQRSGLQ
Format: functional, cell-based.

Test [10] concerns the target T4, Thromboxane A2 receptor. It is filed as functional, cell-based. This is another data set of the same source.
Note: assay procedure not described here.

Chain of 3',5'-cyclic-AMP phosphodiesterase 4A (P27815 whole entry): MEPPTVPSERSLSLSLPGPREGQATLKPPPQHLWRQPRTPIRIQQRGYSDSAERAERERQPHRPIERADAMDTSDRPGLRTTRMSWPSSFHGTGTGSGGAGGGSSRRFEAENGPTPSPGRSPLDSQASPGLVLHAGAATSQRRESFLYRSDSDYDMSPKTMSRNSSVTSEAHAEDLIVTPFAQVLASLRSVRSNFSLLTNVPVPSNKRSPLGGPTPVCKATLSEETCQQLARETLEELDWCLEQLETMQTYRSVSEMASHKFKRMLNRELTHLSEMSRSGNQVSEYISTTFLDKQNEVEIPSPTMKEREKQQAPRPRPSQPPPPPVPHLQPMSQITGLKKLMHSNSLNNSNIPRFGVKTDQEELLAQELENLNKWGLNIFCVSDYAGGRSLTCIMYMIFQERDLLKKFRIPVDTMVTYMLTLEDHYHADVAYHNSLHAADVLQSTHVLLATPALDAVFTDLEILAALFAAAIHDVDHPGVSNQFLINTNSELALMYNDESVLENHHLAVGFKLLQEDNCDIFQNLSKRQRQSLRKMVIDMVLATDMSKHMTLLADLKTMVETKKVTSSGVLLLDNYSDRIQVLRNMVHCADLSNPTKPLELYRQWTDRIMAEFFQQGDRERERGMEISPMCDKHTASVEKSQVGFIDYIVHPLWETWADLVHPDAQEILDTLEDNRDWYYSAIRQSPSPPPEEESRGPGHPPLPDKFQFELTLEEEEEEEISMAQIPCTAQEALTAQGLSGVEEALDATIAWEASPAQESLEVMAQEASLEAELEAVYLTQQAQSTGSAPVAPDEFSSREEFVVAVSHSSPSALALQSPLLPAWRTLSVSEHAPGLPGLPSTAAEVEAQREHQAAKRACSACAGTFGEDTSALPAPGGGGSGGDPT
Chain of Prostaglandin G/H synthase 1 (P23219 whole entry): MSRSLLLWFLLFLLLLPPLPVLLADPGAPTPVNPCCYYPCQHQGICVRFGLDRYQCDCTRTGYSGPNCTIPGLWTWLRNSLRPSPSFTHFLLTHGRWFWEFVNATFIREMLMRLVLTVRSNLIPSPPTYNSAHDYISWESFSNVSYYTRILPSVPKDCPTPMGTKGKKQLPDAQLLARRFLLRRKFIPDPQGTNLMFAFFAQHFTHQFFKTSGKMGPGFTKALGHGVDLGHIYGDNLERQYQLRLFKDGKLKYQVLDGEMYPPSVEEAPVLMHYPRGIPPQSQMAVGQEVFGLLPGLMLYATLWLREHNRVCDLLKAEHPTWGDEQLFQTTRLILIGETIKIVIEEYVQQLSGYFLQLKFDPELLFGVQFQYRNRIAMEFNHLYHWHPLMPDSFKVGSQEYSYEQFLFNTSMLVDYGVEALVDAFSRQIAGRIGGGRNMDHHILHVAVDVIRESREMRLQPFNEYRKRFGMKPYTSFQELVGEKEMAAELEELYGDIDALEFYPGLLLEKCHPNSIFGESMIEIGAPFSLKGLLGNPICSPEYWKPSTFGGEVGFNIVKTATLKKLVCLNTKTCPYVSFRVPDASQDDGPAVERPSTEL
Chain of Voltage-gated inwardly rectifying potassium channel KCNH2 (Q12809 whole entry): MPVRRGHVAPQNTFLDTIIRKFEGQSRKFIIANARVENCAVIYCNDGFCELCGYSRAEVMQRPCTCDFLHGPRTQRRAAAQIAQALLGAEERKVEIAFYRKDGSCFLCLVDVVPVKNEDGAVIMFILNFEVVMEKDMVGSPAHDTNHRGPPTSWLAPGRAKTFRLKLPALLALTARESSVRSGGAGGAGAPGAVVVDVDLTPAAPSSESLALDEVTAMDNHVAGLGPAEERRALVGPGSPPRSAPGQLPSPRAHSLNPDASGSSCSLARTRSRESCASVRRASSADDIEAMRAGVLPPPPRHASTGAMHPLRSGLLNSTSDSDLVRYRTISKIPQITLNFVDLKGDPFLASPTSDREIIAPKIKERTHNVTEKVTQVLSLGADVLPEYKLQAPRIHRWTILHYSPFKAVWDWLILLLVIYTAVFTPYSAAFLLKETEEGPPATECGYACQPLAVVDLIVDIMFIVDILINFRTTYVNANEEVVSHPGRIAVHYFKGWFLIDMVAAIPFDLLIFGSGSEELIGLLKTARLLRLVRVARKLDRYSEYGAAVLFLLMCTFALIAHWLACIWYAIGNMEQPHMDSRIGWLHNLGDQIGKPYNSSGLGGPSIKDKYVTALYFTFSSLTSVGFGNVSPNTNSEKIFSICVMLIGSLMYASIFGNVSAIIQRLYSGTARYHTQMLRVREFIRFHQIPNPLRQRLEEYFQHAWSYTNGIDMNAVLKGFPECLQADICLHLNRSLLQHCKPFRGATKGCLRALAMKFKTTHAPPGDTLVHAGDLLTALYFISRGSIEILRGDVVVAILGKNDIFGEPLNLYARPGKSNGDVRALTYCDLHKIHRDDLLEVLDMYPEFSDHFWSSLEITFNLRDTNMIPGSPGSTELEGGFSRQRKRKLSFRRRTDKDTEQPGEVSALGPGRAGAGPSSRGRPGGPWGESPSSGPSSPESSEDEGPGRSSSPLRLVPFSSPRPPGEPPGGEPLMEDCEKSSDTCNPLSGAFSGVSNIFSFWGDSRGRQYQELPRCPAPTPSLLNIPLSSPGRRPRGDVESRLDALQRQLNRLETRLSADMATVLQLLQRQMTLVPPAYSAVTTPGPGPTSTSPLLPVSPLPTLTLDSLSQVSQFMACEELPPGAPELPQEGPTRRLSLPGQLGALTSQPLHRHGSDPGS
Chain of Acetylcholinesterase (P22303 whole entry): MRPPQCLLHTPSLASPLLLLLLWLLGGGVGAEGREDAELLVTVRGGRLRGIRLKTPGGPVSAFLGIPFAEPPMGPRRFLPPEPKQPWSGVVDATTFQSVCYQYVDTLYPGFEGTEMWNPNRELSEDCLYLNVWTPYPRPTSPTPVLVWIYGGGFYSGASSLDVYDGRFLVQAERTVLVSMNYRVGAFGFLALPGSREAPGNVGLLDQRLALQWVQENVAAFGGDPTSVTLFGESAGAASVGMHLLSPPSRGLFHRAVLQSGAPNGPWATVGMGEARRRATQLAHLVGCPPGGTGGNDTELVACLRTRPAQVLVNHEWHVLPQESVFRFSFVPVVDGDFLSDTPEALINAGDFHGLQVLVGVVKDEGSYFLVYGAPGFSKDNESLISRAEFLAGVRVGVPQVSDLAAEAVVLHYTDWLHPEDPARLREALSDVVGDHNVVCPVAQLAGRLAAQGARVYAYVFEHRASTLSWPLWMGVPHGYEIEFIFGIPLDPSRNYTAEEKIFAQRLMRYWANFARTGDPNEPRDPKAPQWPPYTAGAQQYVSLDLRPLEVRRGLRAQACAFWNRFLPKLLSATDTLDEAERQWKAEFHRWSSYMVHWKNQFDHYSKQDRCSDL
Chain of Histamine H3 receptor (Q9Y5N1 whole entry): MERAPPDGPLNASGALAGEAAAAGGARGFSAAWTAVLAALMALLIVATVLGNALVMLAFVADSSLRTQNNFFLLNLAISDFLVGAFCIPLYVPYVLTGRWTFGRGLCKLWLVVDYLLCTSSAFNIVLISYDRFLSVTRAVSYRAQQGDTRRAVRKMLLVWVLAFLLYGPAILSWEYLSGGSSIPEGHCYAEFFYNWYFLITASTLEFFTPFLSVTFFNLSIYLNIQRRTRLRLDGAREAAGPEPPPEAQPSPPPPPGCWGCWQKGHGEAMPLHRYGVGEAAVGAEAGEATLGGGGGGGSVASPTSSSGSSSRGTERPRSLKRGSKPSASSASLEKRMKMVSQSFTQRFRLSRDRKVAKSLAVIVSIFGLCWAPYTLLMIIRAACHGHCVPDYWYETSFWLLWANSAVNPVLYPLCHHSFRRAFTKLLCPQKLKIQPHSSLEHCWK
Chain of Sodium-dependent noradrenaline transporter (P23975 whole entry): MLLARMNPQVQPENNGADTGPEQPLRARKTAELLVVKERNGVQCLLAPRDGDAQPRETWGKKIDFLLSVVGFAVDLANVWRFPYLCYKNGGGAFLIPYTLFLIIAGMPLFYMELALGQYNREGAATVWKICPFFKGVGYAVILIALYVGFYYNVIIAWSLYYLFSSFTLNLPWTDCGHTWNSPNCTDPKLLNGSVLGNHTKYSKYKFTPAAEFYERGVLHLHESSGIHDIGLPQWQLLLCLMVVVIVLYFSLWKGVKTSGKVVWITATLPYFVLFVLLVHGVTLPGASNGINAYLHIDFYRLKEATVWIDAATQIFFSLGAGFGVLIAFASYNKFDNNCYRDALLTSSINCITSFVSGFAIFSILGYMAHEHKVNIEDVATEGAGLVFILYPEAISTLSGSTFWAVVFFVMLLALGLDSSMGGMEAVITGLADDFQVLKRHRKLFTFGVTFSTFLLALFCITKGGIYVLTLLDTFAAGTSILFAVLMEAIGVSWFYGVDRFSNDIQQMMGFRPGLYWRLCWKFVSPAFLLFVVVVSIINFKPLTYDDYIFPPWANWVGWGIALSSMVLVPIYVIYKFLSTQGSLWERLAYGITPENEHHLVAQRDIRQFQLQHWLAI
Chain of 5-hydroxytryptamine receptor 2B (P41595 whole entry): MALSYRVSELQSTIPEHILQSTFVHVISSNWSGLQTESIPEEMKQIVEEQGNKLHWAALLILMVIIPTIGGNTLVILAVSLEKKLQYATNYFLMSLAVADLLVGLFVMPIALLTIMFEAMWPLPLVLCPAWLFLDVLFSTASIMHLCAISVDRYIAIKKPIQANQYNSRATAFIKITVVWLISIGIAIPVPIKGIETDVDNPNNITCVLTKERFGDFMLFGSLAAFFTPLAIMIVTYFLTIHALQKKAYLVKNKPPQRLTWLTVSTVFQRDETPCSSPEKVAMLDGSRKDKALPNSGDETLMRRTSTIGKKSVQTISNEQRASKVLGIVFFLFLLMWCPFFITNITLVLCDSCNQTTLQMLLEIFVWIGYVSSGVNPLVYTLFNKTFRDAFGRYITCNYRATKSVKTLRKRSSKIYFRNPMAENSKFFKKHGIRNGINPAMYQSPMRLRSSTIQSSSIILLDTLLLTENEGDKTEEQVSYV

In the case of `CC(C)[C@@H]1CC[C@@H](C)C[C@H]1O` [LEVOMENTHOL], the AC50 (at Acetylcholinesterase; in [1]; at D(1A) dopamine receptor; on D(3) dopamine receptor; at Prothrombin; on Histamine H3 receptor) was > 30 µM in each case. Also, the half-maximal activity concentration (AC50) (in test [2]; in [3]; in test [4]; at Mu-type opioid receptor; in test [5]; at Progesterone receptor) was > 30 µM each time. The AC50 (in test [6]; in test [7]; in test [8]; on Thromboxane A2 receptor [9]; on Thromboxane A2 receptor [10]) was > 30 µM each time.

Take `C[N+]1(C)CCCC(OC(=O)C(O)(c2ccccc2)c2ccccc2)C1` (stereo unspecified) [MEPENZOLATE]: the half-maximal activity concentration (AC50) (at Acetylcholinesterase; in test [1]; at D(1A) dopamine receptor; at D(3) dopamine receptor; on Prothrombin; at Histamine H3 receptor) was > 30 µM each time. The AC50 in test [2] was > 30 µM; in [3], > 30 µM; in [4] it was 13 µM; at Mu-type opioid receptor it was > 30 µM; in test [5], > 30 µM; on Progesterone receptor, > 30 µM. Also, the AC50 (in test [6]; in test [7]; in test [8]; on Thromboxane A2 receptor [9]; on Thromboxane A2 receptor [10]) was > 30 µM each time.

As to `COc1c2occc2c(OC)c2c(=O)cc(C)oc12` [KHELLIN], the AC50 (at Acetylcholinesterase; in [1]; at D(1A) dopamine receptor; on D(3) dopamine receptor; at Prothrombin; on Histamine H3 receptor) was > 30 µM in each case. Further, the half-maximal activity concentration (AC50) was > 30 µM in test [2]; > 30 µM in test [3]; > 30 µM in [4]; > 30 µM at Mu-type opioid receptor; 2.85 µM in test [5]; > 30 µM at Progesterone receptor. The half-maximal activity concentration (AC50) (in [6]; in test [7]; in [8]; on Thromboxane A2 receptor [9]; on Thromboxane A2 receptor [10]) was > 30 µM in each case.

For the molecule `Cc1ccsc1C(=CCCN1CCC[C@@H](C(=O)O)C1)c1sccc1C` [TIAGABINE], the concentration at half-maximal activity (AC50) (at Acetylcholinesterase; in [1]; on D(1A) dopamine receptor; at D(3) dopamine receptor; on Prothrombin; at Histamine H3 receptor) was > 30 µM in each case. Moreover, the AC50 in test [2] is > 30 µM; in test [3], > 30 µM; in test [4], > 30 µM; on Mu-type opioid receptor it was > 30 µM; in test [5], 23.6 µM; at Progesterone receptor it was > 30 µM. The AC50 in [6] is 24.4 µM; in test [7], > 30 µM; in test [8], > 30 µM; at Thromboxane A2 receptor [9], > 30 µM; on Thromboxane A2 receptor [10] it was > 30 µM.

As to `O=C(O)P(=O)(O)O` [FOSCARNET], the AC50 (at Acetylcholinesterase; in test [1]; on D(1A) dopamine receptor; on D(3) dopamine receptor; on Prothrombin; at Histamine H3 receptor) was > 30 µM in each case. Also, the AC50 (in test [2]; in test [3]; in [4]; at Mu-type opioid receptor; in [5]; at Progesterone receptor) was > 30 µM each time. Besides, the half-maximal activity concentration (AC50) (in [6]; in test [7]; in test [8]; on Thromboxane A2 receptor [9]; on Thromboxane A2 receptor [10]) was > 30 µM in each case.

Consider `CCCc1nc2c(C)cc(-c3nc4ccccc4n3C)cc2n1Cc1ccc(-c2ccccc2C(=O)O)cc1`, for which the half-maximal activity concentration (AC50) (at Acetylcholinesterase; in test [1]; at D(1A) dopamine receptor; on D(3) dopamine receptor; on Prothrombin; at Histamine H3 receptor) was > 30 µM throughout. Also, the concentration at half-maximal activity (AC50) is > 30 µM in test [2]; > 30 µM in test [3]; > 30 µM in test [4]; 2.56 µM at Mu-type opioid receptor; 13.5 µM in test [5]; > 30 µM on Progesterone receptor. Further, the AC50 in test [6] was > 30 µM; in [7] it was > 30 µM; in [8], > 30 µM; at Thromboxane A2 receptor [9], 14.5 µM; on Thromboxane A2 receptor [10], > 1 µM.

For the molecule `O=C(NNCS(=O)(=O)O)c1ccncc1` [METHANIAZIDE], the AC50 (on Acetylcholinesterase; in [1]; at D(1A) dopamine receptor; on D(3) dopamine receptor; on Prothrombin; at Histamine H3 receptor) was > 30 µM each time. In addition, the AC50 (in test [2]; in [3]; in [4]; at Mu-type opioid receptor; in [5]; on Progesterone receptor) was > 30 µM each time. Further, the concentration at half-maximal activity (AC50) (in test [6]; in test [7]; in test [8]; at Thromboxane A2 receptor [9]; on Thromboxane A2 receptor [10]) was > 30 µM in each case.

As to `CC(=O)NCCCCCC(=O)O` [ACEXAMIC ACID], the AC50 (at Acetylcholinesterase; in [1]; at D(1A) dopamine receptor; at D(3) dopamine receptor; on Prothrombin; on Histamine H3 receptor) was > 30 µM throughout. The concentration at half-maximal activity (AC50) (in test [2]; in test [3]; in test [4]; on Mu-type opioid receptor; in [5]; on Progesterone receptor) was > 30 µM each time. Further, the AC50 (in test [6]; in [7]; in [8]; at Thromboxane A2 receptor [9]; at Thromboxane A2 receptor [10]) was > 30 µM each time.
